The nature of data set [1]: clinical. Particulars: human, in vivo, iv.
Data set [2] can be described thus: clinical. The following applies: human, in vivo, iv, Vdss.
A short description of data set [3]: clinical. Particulars: human, in vivo, iv, t1/2.
Data set [4] in a line: clinical. The following applies: human, in vivo, iv, CL.

Broadly, the MRT is a mean duration of stay, worked out from the concentration-time curve. By Vd is commonly meant a proportionality between amount in the body and measured concentration, not a real space. Higher therefore signals extensive tissue distribution. Usually half-life stands for the time in which the quantity being followed falls by half. For orientation: clearance means a measure of how efficiently the substance is removed, as volume per time. A low value points to inefficient removal. Take `O=C(O)CCCc1ccc(N(CCCl)CCCl)cc1` [CHLORAMBUCIL]: the MRT in data set [1] stood at 1.5 h. This compound yielded a Vd in data set [2] of 0.26 L/kg. Besides, the half-life in data set [3] is 1.1 h. The compound also returned a clearance in data set [4] of 2.8 mL/min/kg.
For `C[C@@H]1C(=O)O[C@H]2C[C@@]34[C@H]5C[C@@H](C(C)(C)C)[C@]36[C@@H](OC(=O)[C@@H]6O)O[C@@]4(C(=O)O5)[C@]21O` [GINKGOLIDE A] the same measures were 4.6 h, 0.62 L/kg, 3.8 h and 2.3 mL/min/kg.
For `Cc1cc(=O)n(-c2ccccc2)n1C` [ANTIPYRINE] the same measures were 20 h, 0.77 L/kg, 12 h and 0.64 mL/min/kg.
As to `CO[C@H]1C[C@@H]2CC[C@@H](C)[C@@](O)(O2)C(=O)C(=O)N2CCCC[C@H]2C(=O)O[C@H]([C@H](C)C[C@@H]2CC[C@H](n3cnnn3)[C@H](OC)C2)CC(=O)[C@H](C)/C=C(\C)[C@@H](O)[C@@H](OC)C(=O)[C@H](C)C[C@H](C)/C=C/C=C/C=C/1C` [ZOTAROLIMUS], the MRT in data set [1] stood at 33 h. The same compound showed a Vd in data set [2] of 1.3 L/kg. In data set [3], this compound showed a half-life of 35 h. This compound also yielded a clearance in data set [4] of 0.67 mL/min/kg.
Regarding `CN1[C@@H]2CC[C@H]1C[C@@H](OC(=O)c1c[nH]c3ccccc13)C2` [TROPISETRON], in data set [1], the MRT was 6.3 h. This compound displayed a Vd in data set [2] of 9.7 L/kg. The compound also gave a half-life in data set [3] of 5.6 h. This compound also came in with a clearance in data set [4] of 26 mL/min/kg.
Taken in the same sequence, the figures for `C[C@H]1c2cccc(O)c2C(=O)C2=C(O)[C@]3(O)C(=O)C(C(N)=O)=C(O)[C@@H](N(C)C)[C@@H]3[C@@H](O)[C@@H]21.O` [DOXYCYCLINE] were 25 h, 0.69 L/kg, 14 h and 0.46 mL/min/kg.
Taken in the same sequence, the figures for `CN1Cc2c(N)cccc2C(c2ccccc2)C1` (centres undefined) [NOMIFENSINE] were 4.5 h, 6 L/kg, 6.5 h and 22 mL/min/kg.
With `CCOc1cc(CC(=O)N[C@@H](CC(C)C)c2ccccc2N2CCCCC2)ccc1C(=O)O` [REPAGLINIDE], the MRT in data set [1] is 0.75 h. In data set [2], this compound gave a Vd of 0.35 L/kg. In data set [3], this compound showed a half-life of 0.87 h. The compound also came in with a clearance in data set [4] of 7.8 mL/min/kg.
For `CCCc1nc2c(C)cc(-c3nc4ccccc4n3C)cc2n1Cc1ccc(-c2ccccc2C(=O)O)cc1` the same measures were 11 h, 5.3 L/kg, 20 h and 8.4 mL/min/kg.
For `Cc1ccc(-c2nc3ccc(C)cn3c2CC(=O)N(C)C)cc1` [ZOLPIDEM] the same measures were 2.1 h, 0.54 L/kg, 1.7 h and 4.3 mL/min/kg.
For `CO[C@H]1C[C@@H]2CC[C@@H](C)[C@@](O)(O2)C(=O)C(=O)N2CCCC[C@H]2C(=O)O[C@H]([C@H](C)C[C@@H]2CC[C@@H](OC(=O)C(C)(CO)CO)[C@H](OC)C2)CC(=O)[C@H](C)/C=C(\C)[C@@H](O)[C@@H](OC)C(=O)[C@H](C)C[C@H](C)/C=C/C=C/C=C/1C` [TEMSIROLIMUS] the same measures were 10 h, 3 L/kg, 18 h and 7.7 mL/min/kg.
`c1ccc(C2(N3CCCCC3)CCCCC2)cc1` [PHENCYCLIDINE] came in with an MRT in data set [1] of 23 h. Also, the Vd in data set [2] worked out at 6.9 L/kg. In data set [3], the half-life is 16 h. This compound came in with a clearance in data set [4] of 5.1 mL/min/kg.
For `Cc1ccc(O)c([C@H](CCN(C(C)C)C(C)C)c2ccccc2)c1` [TOLTERODINE] the same measures were 2.98 h, 1.5 L/kg, 2.4 h and 8.4 mL/min/kg.
For `CCS(=O)(=O)CCn1c([N+](=O)[O-])cnc1C` [TINIDAZOLE] the same measures were 16 h, 0.59 L/kg, 13 h and 0.6 mL/min/kg.
For `Clc1cccc(N2CCNCC2)c1` [CHLOROPHENYLPIPERAZINE] the same measures were 7 h, 2.5 L/kg, 4.7 h and 6.1 mL/min/kg.
For the compound `CC(C(=O)O)c1ccc(C(=O)c2cccs2)cc1` (centres undefined) [SUPROFEN], the MRT in data set [1] was 0.88 h. The Vd in data set [2] is 0.04 L/kg. The same compound had a half-life in data set [3] of 2.1 h. For the same compound, in data set [4], the clearance came out at 0.76 mL/min/kg.
Taken in the same sequence, the figures for `NS(=O)(=O)c1cc(C2(O)NC(=O)c3ccccc32)ccc1Cl` (centres undefined) [CHLORTHALIDONE] were 43 h, 3.9 L/kg, 36 h and 1.5 mL/min/kg.
Taken in the same sequence, the figures for `COc1cccc2c1C(=O)c1c(O)c3c(c(O)c1C2=O)C[C@@](O)(C(=O)CO)C[C@@H]3O[C@H]1C[C@H](N)[C@H](O)[C@H](C)O1` [DOXORUBICIN] were 24 h, 22 L/kg, 32 h and 15 mL/min/kg.
Taken in the same sequence, the figures for `CCOc1ccccc1OCCN[C@H](C)Cc1ccc(OC)c(S(N)(=O)=O)c1` [TAMSULOSIN] were 5.6 h, 0.21 L/kg, 6.8 h and 0.62 mL/min/kg.
Consider `CN(C)C(=O)Oc1cc(OC(=O)N(C)C)cc(C(O)CNC(C)(C)C)c1` (centres undefined) [BAMBUTEROL], for which the MRT in data set [1] turned out to be 1.4 h. This compound also registered a Vd in data set [2] of 1.6 L/kg. This compound also showed a half-life in data set [3] of 2.6 h. In data set [4], this compound showed a clearance of 18 mL/min/kg.
The compound `COc1ccc2c3c1O[C@H]1C[C@@H](O)C=C[C@@]31CCN(C)C2` [GALANTAMINE] gave an MRT in data set [1] of 6.8 h. Also, the Vd in data set [2] amounted to 2.3 L/kg. Moreover, the half-life in data set [3] is 5.3 h. The compound further came in with a clearance in data set [4] of 5.6 mL/min/kg.
For `Nc1ccc(S(=O)(=O)Nc2ncccn2)cc1` [SULFADIAZINE] the same measures were 8.8 h, 0.29 L/kg, 7 h and 0.55 mL/min/kg.
For `CN[C@H](CC(C)C)C(=O)N[C@H]1C(=O)N[C@@H](CC(N)=O)C(=O)N[C@H]2C(=O)N[C@H]3C(=O)N[C@H](C(=O)N[C@H](C(=O)O)c4cc(O)cc(O)c4-c4cc3ccc4O)[C@H](O)c3ccc(c(Cl)c3)Oc3cc2cc(c3O[C@@H]2O[C@H](CO)[C@@H](O)[C@H](O)[C@H]2O[C@H]2C[C@](C)(N)[C@H](O)[C@H](C)O2)Oc2ccc(cc2Cl)[C@H]1O` [VANCOMYCIN] the same measures were 6.9 h, 0.54 L/kg, 6.5 h and 1.3 mL/min/kg.
For `Nc1nc(O)c2ncn(COC(CO)CO)c2n1` [GANCICLOVIR] the same measures were 3.7 h, 1 L/kg, 3.7 h and 4.6 mL/min/kg.
In data set [1], `COc1ccc(Cc2nccc3cc(OC)c(OC)cc23)cc1OC` [PAPAVERINE] came in with an MRT of 1.4 h. Also, the Vd in data set [2] came to 0.95 L/kg. This compound also had a half-life in data set [3] of 1.8 h. In data set [4], this compound displayed a clearance of 11 mL/min/kg.
Taken in the same sequence, the figures for `O=C(O)[C@@H]1C[C@@H](C2CCCCC2)CN1C(=O)CP(=O)(O)CCCCc1ccccc1` [FOSINOPRILAT] were 6.8 h, 0.13 L/kg, 9.4 h and 0.32 mL/min/kg.
For `CCOc1ccccc1OC(c1ccccc1)C1CNCCO1` (centres undefined) [REBOXETINE] the same measures were 13 h, 0.65 L/kg, 10 h and 0.82 mL/min/kg.
Taken in the same sequence, the figures for `N[C@@H](CC(=O)N1CCn2c(nnc2C(F)(F)F)C1)Cc1cc(F)c(F)cc1F` [SITAGLIPTIN] were 7.78 h, 2.8 L/kg, 12 h and 6 mL/min/kg.
On to `C[C@]12CCC(=O)C=C1CC[C@@H]1[C@@H]2[C@@H](O)C[C@@]2(C)[C@H]1CC[C@]2(O)C(=O)CO` [HYDROCORTISONE], for which the MRT in data set [1] was 1.9 h. In addition, in data set [2], the Vd came to 0.38 L/kg. The compound also had a half-life in data set [3] of 1.6 h. The clearance in data set [4] is 5.7 mL/min/kg.
For `COc1ccc2c(c1)N(C[C@H](C)CN(C)C)c1ccccc1S2` [LEVOMEPROMAZINE] the same measures were 21 h, 12 L/kg, 30 h and 9.9 mL/min/kg.
For `COc1cc2nc(N(C)CCCNC(=O)C3CCCO3)nc(N)c2cc1OC` (centres undefined) [ALFUZOSIN] the same measures were 4.2 h, 1.5 L/kg, 4.8 h and 5.9 mL/min/kg.
Taken in the same sequence, the figures for `CC(C)[C@@H](CC[C@@H](C)[C@H]1CC[C@H]2[C@@H]3[C@H](O)C[C@H]4C[C@@H](NCCCNCCCCN)CC[C@]4(C)[C@H]3CC[C@]12C)OS(=O)(=O)O` [SQUALAMINE] were 3.2 h, 0.23 L/kg, 9.5 h and 1.2 mL/min/kg.
In turn, `COc1nc(N)nc2c1ncn2[C@@H]1O[C@H](CO)[C@@H](O)[C@@H]1O` [NELARABINE] yielded an MRT in data set [1] of 1 h. The Vd in data set [2] is 4.9 L/kg. This compound showed a half-life in data set [3] of 0.5 h. This compound had a clearance in data set [4] of 81 mL/min/kg.
For `CN/C(=N/CCSCc1nc[nH]c1C)NC#N` [CIMETIDINE] the same measures were 2.5 h, 1.2 L/kg, 2.2 h and 8.1 mL/min/kg.
Taken in the same sequence, the figures for `COc1cc2c(cc1O)CCN[C@]21CS[C@@H]2c3c(OC(C)=O)c(C)c4c(c3[C@H](COC1=O)N1[C@@H]2[C@H]2c3c(cc(C)c(OC)c3O)C[C@@H]([C@@H]1O)N2C)OCO4` [TRABECTEDIN] were 35 h, 25 L/kg, 44 h and 12 mL/min/kg.
Taken in the same sequence, the figures for `CCCC1O[C@@H]2C[C@H]3[C@@H]4CCC5=CC(=O)C=C[C@]5(C)[C@H]4[C@@H](O)C[C@]3(C)[C@]2(C(=O)CO)O1` (some centres undefined) [BUDESONIDE] were 3.2 h, 3.9 L/kg, 2.8 h and 20 mL/min/kg.

The record behind these values is ChEMBL document CHEMBL1614632, “Trend analysis of a database of intravenous pharmacokinetic parameters in humans for 670 drug compounds” (Drug Metab Dispos, 2008).
